Reference: ChEMBL document CHEMBL3352575, “Synthesis, in vitro and in vivo antitumor activity of pyrazole-fused 23-hydroxybetulinic acid derivatives” (Bioorg Med Chem Lett, 2015)

Legend:
H22 [1] = test: Antitumor activity against […] H22 cells […] in ICR mouse assessed as tumor growth inhibition at 30 mg/kg, ip administered 7 days post inoculation measured at day 25 of tumor transplantation; format: functional; conditions: route intraperitoneal
B16 [2] = test: Antitumor activity against mouse B16 cells allografted in ICR mouse assessed as tumor growth inhibition at 30 mg/kg, ip administered 7 days post inoculation measured at day 25 of tumor transplantation; format: functional; conditions: route intraperitoneal
HeLa = test: Antiproliferative activity against human HeLa cells after 72 hrs by MTT assay; format: functional, cell-based
[3] = Antiproliferative activity against human HL60 cells after 72 hrs by MTT assay; format: functional, cell-based; conditions: HL-60, 72 h
[4] = Antiproliferative activity against human SF763 cells after 72 hrs by MTT assay; format: functional, cell-based; conditions: SF763, 72 h
[5] = Antiproliferative activity against human Bel7402 cells after 72 hrs by MTT assay; format: functional, cell-based; conditions: Bel-7402, 72 h
B16 [6] = test: Antiproliferative activity against mouse B16 cells after 72 hrs by MTT assay; format: functional, cell-based; conditions: B16, 72 h
H22 [7] = test: Antitumor activity against human H22 cells xenografted in ICR mouse assessed as tumor growth inhibition at 30 mg/kg, iv administered 7 days post inoculation measured at day 25 of tumor transplantation; conditions: read-out: INH
B16 [8] = test: Antitumor activity against mouse B16 cells allografted in ICR mouse assessed as tumor growth inhibition at 30 mg/kg, iv administered 7 days post inoculation measured at day 25 of tumor transplantation; format: functional

Structure (SMILES)	inhibition in vivo at 30 mg/kg (H22 [1])	inhibition in vivo at 30 mg/kg (B16 [2])	IC50 (HeLa)	IC50 [3]	IC50 [4]	IC50 [5]	IC50 (B16 [6])	inhibition in vivo at 30 mg/kg (H22 [7])	inhibition in vivo at 30 mg/kg (B16 [8])
C=C(C)[C@@H]1CC[C@]2(C(=O)O)CC[C@]3(C)[C@H](CC[C@@H]4[C@@]5(C)CC[C@H](O)[C@@](C)(CO)[C@@H]5CC[C@]43C)[C@@H]12	27.8%	32.4%							
C=C(C)[C@@H]1CC[C@]2(C(=O)NCCN)CC[C@]3(C)[C@H](CC[C@@H]4[C@@]5(C)Cc6c[nH]nc6[C@@](C)(COC(C)=O)[C@@H]5CC[C@]43C)[C@@H]12	51.2%	58.9%	8.97 µM	8.04 µM	6.13 µM	8.12 µM	5.58 µM		
O=P1(N(CCCl)CCCl)NCCCO1 (stereo unspecified) [CYCLOPHOSPHAMIDE ANHYDROUS]								53.7%	
O=c1[nH]cc(F)c(=O)[nH]1 [FLUOROURACIL]			9.09 µM	10.5 µM	9.34 µM	11.8 µM	10.5 µM		70.3%
